The record followed here is patent US20080194522A1, “Development of Fluorogenic Substrates For Monoamine Oxidases (Mao-A and Mao-B)” (priority 2004, published 2008).

Series [1] can be described thus: Photophysical characterization (absorbance, extinction coefficient, emission, quantum yield). The following applies: for ΦEtOH: EtOH; for ΦH2O: H2O; for fluorescence, in words: aqueous / phosphate buffer. The series is classed as physicochemical. The protocol:
Extinction coefficients were the average of three independent determinations of three different readings from the lowest energy transition at three concentrations. Quantum yields are the average of three determinations of both quantum yield standard 9,10-diphenylanthracene and the synthesized coumarines at 340 nm unless otherwise indicated.
All spectra were recorded in 100 mM sodium phosphate (pH 7.4) unless otherwise indicated. Recorded λmax is that of the longest wavelength transition. Extinction coefficients were reported as the average of at least three independent preparations of the probes. Fluorescence measurements were taken on a Jobin Yvon Fluorolog fluorescence spectrofluorometer (slits 3, HV 750) in 100 mM sodium phosphate pH 7.4 buffer unless otherwise indicated. Quantum yields were measured relative to 9,10 diphenylanthracene in EtOH.4 Reported quantum efficiencies are the average of at least three independent preparations of the probes.
The extinction coefficient ε relates the absorbance of a compound to its concentration as expressed in Beer's law (A=εbc where A is absorbance, b is pathlength, and c is concentration). Extinction coefficients were the average of three independent determinations of three different readings of absorbance from the lowest energy transition at three concentrations. The quantum yield of fluorescence is the fraction of absorbed photons that lead to fluorescence; the number of photons fluoresced divided by the number of photons absorbed. To obtain the quantum yields of the synthesized coumarines their efficiency was compared to standard 9,10-diphenylanthracene at 340 nm in three different determinations. The effect of different solvents on the fluorescence of the compounds was also tested. The compounds were dissolved in methanol, chloroform and toluene and their emissions spectrum was taken.

The nature of a further series: Chemical stability. Particulars: in words.
Setting [2] is: Table 5, 100 mM sodium phosphate pH 7.4.
Setting [3] is: Table 5, 100 mM sodium phosphate pH 7.4, longest wavelength transition.
Where [4] appears, read: Table 5, relative to 9,10-diphenyl anthracene (excited at 340 nm).
Setting [5] is: Table 5, relative to 9,10-diphenyl anthracene (excited at 365 nm).
[6] abbreviates: Table 3, in water, relative to 9,10-diphenyl anthracene (excited at 365 nm).
Setting [7] is: Table 3 hydroxyl-amine probes, in water.
Where [8] appears, read: Table 4, in water, relative to 9,10-diphenyl anthracene (excited at 365 nm).
[9] abbreviates: Table 4 indoles, in water, first λmax column.
The mark [10] stands for this setting: Table 4 indoles, in water, second λmax.
Setting [11] is: Table 4, in water, relative to coumarin 6 (excited at 420 nm).
The mark [12] stands for this setting: Table 4, in water, relative to 9,10-diphenyl anthracene (excited at 340 nm).

“Also recorded” adds a separate entry of the source. Marks after values point to notes of the source that are not given here.

With “7-(1H-Indol-5-yl)-4-methyl-chromen-2-one [Probe 4]”, in series [1] (setting [2]), the “ε (M^−1cm^−1)” value is given as 11,600 ± 800 M^−1cm^−1. Besides, the “λmax (nm)” value in series [1] (setting [3]) is on record as 349 nm. For the same compound, in series [1] (setting [4]), the ΦEtOH is listed as 0.36 ± 0.07^a and the ΦH2O is 0.13 ± 0.02^a.

As to “7-(4-Amino-phenyl)-4-methyl-chromen-2-one [Probe 1]”, in series [1] (setting [2]), the “ε (M^−1cm^−1)” value was 13,000 ± 1,000 M^−1cm^−1 and the “λcm (nm)” value is given as 484 nm. Besides, in series [1] (setting [3]), the “λmax (nm)” value was found to be 390 nm. For the same compound, in series [1] (setting [5]), the ΦEtOH was 0.0287 ± 0.0006^b and the ΦH2O is recorded as 0.00112 ± 0.00008^b.

“7-[4-Amino-3-(2-hydroxy-ethyl)-phenyl]-4-methyl-chromen-2-one [Probe 3]”: the “λcm (nm)” value in series [1] (setting [2]) amounted to 492 nm. In addition, in series [1] (setting [3]), the “λmax (nm)” value is reported as 350 nm. The ΦH2O in series [1] (setting [4]) was 0.010 ± 0.003^a.

`Cc1cc(=O)oc2ccc(N)c(CCN)c12` [IV] came in with a Φ in series [1] (Table 2, in water, relative to 9,10-diphenyl anthracene (excited at 340 nm)) of 0.010.

`Nc1ccc2oc(=O)ccc2c1CCO` [IX] showed a Φ in series [1] (setting [6]) of 0.0017. Besides, in series [1] (setting [7]), the “ε (M^−1cm^−1)” value is 3,400 ± 500 M^−1cm^−1 and the “λmax (nm)” value is reported as 357 nm.

As to `CCN(CC)c1ccc2c(C)c(-c3ccc(N)c(CCN)c3)c(=O)oc2c1` [I], in series [1] (Table 2 diamines, in water), the “ε (M^−1cm^−1)” value is 13,000 ± 1,000 M^−1cm^−1, the “λcm (nm)” value is reported as 484 nm and the “λmax (nm)” value worked out at 390 nm.

`Cc1c(-c2ccc3[nH]ccc3c2)c(=O)oc2c3c4c(cc12)CCCN4CCC3` [Probe 24, 9-(1H-Indol-5-yl)-8-methyl-2,3,5,6-tetrahydro-1H, 4H-11-oxa-3a-aza-benzo[de]anthracen-10-one] had an emission wavelength in series [1] of 495 nm.

On to `O=c1oc2c3c4c(cc2c(C(F)(F)F)c1-c1ccc2[nH]ccc2c1)CCCN4CCC3` [Probe 25, 9-(1H-Indol-5-yl)-8-trifluoromethyl-2,3,5,6-tetrahydro-1H, 4H-11-oxa-3a-aza-benzo[de]anthracen-10-one], for which, in series [1], the “fluorescence quantum yield, in words” value is “rather low quantum yield” and the “fluorescence, in words” value is “distinct red-shift emission”.

Regarding `Cc1cc(=O)oc2c1ccc1[nH]ccc12` [Probe 36, 4-Methyl-7H-pyrano[2,3-e]indol-2-one], the “fluorescence, in words” value in series [1] is given as “very weak fluorescence emission intensity; also recorded: very weakly fluorescent”.

As for `Cc1cc(=O)oc2ccc3[nH]ccc3c12` [Probe 52, 9-Methyl-3H-pyrano[3,2-e]indol-7-one], in series [1], the “fluorescence, in words” value was “quite fluorescent”.

Regarding `Cc1cc(=O)oc2ccc3cc[nH]c3c12` [Probe 55, 9-Methyl-1H-pyrano[2,3-g]indol-7-one], in series [1], the “fluorescence, in words” value is listed as “quite fluorescent”.

As for `Nc1cc2ccc(=O)oc2cc1CCO` [Probe 58, 6-Amino-7-(2-hydroxy-ethyl)-chromen-2-one], the “fluorescence, in words” value in series [1] is on record as “basically non-fluorescent; also recorded: very weakly fluorescent”.

For `Nc1c(CCO)ccc2oc(=O)ccc12` [Probe 81, 5-Amino-6-(2-hydroxy-ethyl)-chromen-2-one], the “fluorescence, in words” value in series [1] is “very weakly fluorescent; also recorded: only weak fluorescence”.

`Cc1cc(=O)oc2ccc(N)c(CCN)c12` [Probe 115, 6-Amino-5-(2-amino-ethyl)-4-methyl-chromen-2-one]: in the series “Chemical stability”, the chemical stability entry is “stable when protonated; also recorded: very unstable once deprotonated, or even under neutral condition”.

Consider `NCCc1cc2oc(=O)ccc2cc1N` [Probe 116, 6-Amino-7-(2-amino-ethyl)-chromen-2-one], for which the “fluorescence, in words” value in series [1] is given as “very weakly fluorescent”. In addition, the chemical stability entry in “Chemical stability” was “perfectly stable”.

Consider `CC12CC(=O)Oc3ccc(N)c(c31)CCN2` (stereo not drawn) [Probe 125, 7-Amino-3a-methyl-3a,4,5,6-tetrahydro-3H-1-oxa-4-aza-phenalen-2-one], for which the “fluorescence, in words” value in series [1] is given as “non-fluorescent”.

As for `Nc1cc2ccc(=O)oc2cc1CCO` [VIII], the “λmax (nm)” value in series [1] (setting [7]) was 354 nm.

In series [1] (setting [6]), `Cc1c(-c2ccc(N)c(CCO)c2)c(=O)oc2c3c4c(cc12)CCCN4CCC3` [VII] came in with a Φ of 0.0040. Further, in series [1] (setting [7]), the “ε (M^−1cm^−1)” value is recorded as 21,000 ± 2,000 M^−1cm^−1, the “λcm (nm)” value stood at 499 nm and the “λmax (nm)” value is recorded as 391 nm.

Turning to `CCN(CC)c1ccc2c(C)c(-c3ccc(N)c(CCO)c3)c(=O)oc2c1` [VI], the Φ in series [1] (setting [6]) is 0.014. Further, in series [1] (setting [7]), the “ε (M^−1cm^−1)” value is on record as 15,000 ± 1,000 M^−1cm^−1, the “λcm (nm)” value came to 499 nm and the “λmax (nm)” value is recorded as 394 nm.

With `NCCc1ccc2oc(=O)ccc2c1N` [V], in series [1] (Table 2 diamines, in water), the “ε (M^−1cm^−1)” value is 6,000 ± 100 M^−1cm^−1 and the “λmax (nm)” value was 299 nm.

As for `CCN(CC)c1ccc2c(C)c(-c3ccc4cc[nH]c4c3)c(=O)oc2c1` [XIII], in series [1] (setting [8]), the Φ is on record as 0.0103 ± 0.0003^b. The “ε (M^−1cm^−1)” value in series [1] (Table 4 indoles, in water) is given as 20,000 ± 3,000 M^−1cm^−1. Also, the “λmax (nm)” value in series [1] (setting [9]) amounted to 399 nm; in series [1] (setting [10]), 484 nm.

In the case of `CCN(CC)c1ccc2cc(-c3ccc4[nH]ccc4c3)c(=O)oc2c1` [XII], the Φ in series [1] (setting [11]) is listed as 0.08 ± 0.02^c. The “ε (M^−1cm^−1)” value in series [1] (Table 4 indoles, in water) is recorded as 17,000 ± 1,000 M^−1cm^−1. For the same compound, the “λmax (nm)” value in series [1] (setting [9]) is on record as 401 nm; in series [1] (setting [10]), 477 nm.

With `O=c1oc2c3c4c(cc2cc1-c1ccc2[nH]ccc2c1)CCCN4CCC3` [XIV], the Φ in series [1] (setting [8]) was 0.050 ± 0.005^b. In addition, the “λmax (nm)” value amounted to 388 nm in series [1] (setting [9]) and 501 nm in series [1] (setting [10]).

In the case of `O=c1ccc2c(ccc3[nH]ccc32)o1` [XIX], in series [1] (setting [11]), the Φ is 0.05 ± 0.02^c. The “ε (M^−1cm^−1)” value in series [1] (Table 4 indoles, in water) is listed as 9,400 ± 900 M^−1cm^−1. For the same compound, the “λmax (nm)” value came out at 355 nm in series [1] (setting [9]) and 517 nm in series [1] (setting [10]).

`Cc1cc(=O)oc2cc(-c3ccc4[nH]ccc4c3)ccc12` [XI]: in series [1] (setting [12]), the Φ is 0.00329 ± 0.00008^a. Also, the “λmax (nm)” value turned out to be 339 nm in series [1] (setting [9]) and 445 nm in series [1] (setting [10]).

As to `Cc1cc(=O)oc2ccc3[nH]ccc3c12` [XVIII], the Φ in series [1] (setting [12]) is 0.18 ± 0.05^a. Also, the “ε (M^−1cm^−1)” value in series [1] (Table 4 indoles, in water) is listed as 11,600 ± 800 M^−1cm^−1. For the same compound, the “λmax (nm)” value in series [1] (setting [9]) came out at 349 nm; in series [1] (setting [10]), 492 nm.

For the compound `Cc1cc(=O)oc2ccc3cc[nH]c3c12` [XVII], in series [1] (setting [12]), the Φ is on record as 0.0531 ± 0.0001^a. The “ε (M^−1cm^−1)” value in series [1] (Table 4 indoles, in water) is reported as 14,000 ± 3,000 M^−1cm^−1. Moreover, the “λmax (nm)” value amounted to 330 nm in series [1] (setting [9]) and 488 nm in series [1] (setting [10]).

As for `O=c1oc2c3c4c(cc2c(C(F)(F)F)c1-c1ccc2[nH]ccc2c1)CCCN4CCC3` [XV], the “λmax (nm)” value in series [1] (setting [9]) stood at 439 nm; in series [1] (setting [10]), 557 nm.

`O=c1ccc2cc3[nH]ccc3cc2o1` [XX]: the Φ in series [1] (setting [12]) is recorded as 0.0082 ± 0.0004^a. Besides, the “ε (M^−1cm^−1)” value in series [1] (Table 4 indoles, in water) was 17,000 ± 2,000 M^−1cm^−1. For the same compound, the “λmax (nm)” value in series [1] (setting [9]) is 335 nm; in series [1] (setting [10]) it was 524 nm.

Turning to `Nc1c(CCO)ccc2oc(=O)ccc12` [X], in series [1] (setting [7]), the “ε (M^−1cm^−1)” value is on record as 13,000 ± 3,000 M^−1cm^−1 and the “λmax (nm)” value was found to be 298 nm.

Regarding “[4-(4-Methyl-2-oxo-2H-chromen-7-yl)-phenyl]-carbamic acid tert-butyl ester [Probe 2]”, in series [1] (setting [2]), the “ε (M^−1cm^−1)” value is listed as 17,000 ± 1,000 M^−1cm^−1 and the “λcm (nm)” value came to 477 nm. For the same compound, the “λmax (nm)” value in series [1] (setting [3]) is 401 nm. Further, in series [1] (setting [5]), the ΦEtOH is 0.59 ± 0.09^b and the ΦH2O is reported as 0.08 ± 0.01^b.
